According to ChEMBL document CHEMBL1201862, “PubChem BioAssay data set” (2004):
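Each compound was tested at five concentrations against cells in 96-well plates for 48 hours. Here, GI50 denotes the concentration required for 50% inhibition of growth.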 Active and inactive are the calls of the source. No stated cut-off is given here; in the data, active = GI50 up to about 1.1 µM and inactive = higher.

Legend:
Assay in all cases: growth of human tumour cells (NCI), 48 h
A549 = tested on: A549
CAKI-1 = tested on: CAKI-1
HCT-116 = tested on: HCT-116
HOP-92 = tested on: HOP-92
IGROV-1 = tested on: IGROV-1
K562 = tested on: K562
NCI-H226 = tested on: NCI-H226
NCI-H23 = tested on: NCI-H23
OVCAR-3 = tested on: OVCAR-3
OVCAR-8 = tested on: OVCAR-8
SF-539 = tested on: SF-539
SK-MEL-5 = tested on: SK-MEL-5
SK-OV-3 = tested on: SK-OV-3
SN12C = tested on: SN12C
SNB-19 = tested on: SNB-19
SNB-75 = tested on: SNB-75
UACC-257 = tested on: UACC-257
A498 = tested on: A498

Measured: GI50

O=C(CCCCCCCCCCc1ccccc1)C1=C(O)CCCC1=O
inactive: A549 18.4 µM | CAKI-1 7.85 µM | HCT-116 22.9 µM | HOP-92 11.3 µM | IGROV-1 35.4 µM | K562 19.8 µM | NCI-H226 26.1 µM | NCI-H23 20.2 µM | OVCAR-3 32.8 µM | OVCAR-8 24.4 µM | SF-539 41.9 µM | SK-MEL-5 18.1 µM | SK-OV-3 35.6 µM | SN12C 35.2 µM | SNB-19 46.2 µM | SNB-75 32.6 µM | UACC-257 34 µM

O=C(CCCC(=O)Nc1ccc(Cl)cc1Cl)CC(=O)c1ccc2ccccc2c1
inactive: A549 > 100 µM | CAKI-1 > 100 µM | HCT-116 > 100 µM | HOP-92 96.6 µM | IGROV-1 > 100 µM | K562 > 100 µM | NCI-H226 > 100 µM | NCI-H23 > 100 µM | OVCAR-3 > 100 µM | OVCAR-8 > 100 µM | SF-539 > 100 µM | SK-MEL-5 > 100 µM | SK-OV-3 > 100 µM | SN12C > 100 µM | SNB-19 > 100 µM | UACC-257 > 100 µM

CCC(C)CN1C(=O)NC(C)(Cc2ccccc2)C1=O (stereo unspecified)
inactive: A549 > 100 µM | CAKI-1 > 100 µM | HOP-92 > 100 µM | NCI-H226 > 100 µM | NCI-H23 > 100 µM | OVCAR-8 > 100 µM | SF-539 > 100 µM | SK-MEL-5 > 100 µM | SN12C > 100 µM | SNB-19 > 100 µM | SNB-75 > 100 µM | UACC-257 > 100 µM

Cc1cccc(C(C)(C)C)c1NC(=O)CC1C(=O)Nc2ccccc2[S+]1[O-] (stereo unspecified)
inactive: A549 37 µM | CAKI-1 39.3 µM | HCT-116 40.6 µM | HOP-92 68.7 µM | K562 34.1 µM | NCI-H226 69.3 µM | NCI-H23 26.4 µM | OVCAR-3 49.7 µM | OVCAR-8 97.1 µM | SF-539 75.7 µM | SN12C 55.8 µM | SNB-19 57.1 µM | SNB-75 54.2 µM | UACC-257 61.9 µM

O=[N+]([O-])c1nccn1COCCO
inactive: A498 > 100 µM | A549 > 100 µM | CAKI-1 > 100 µM | HCT-116 > 100 µM | HOP-92 > 100 µM | NCI-H226 > 100 µM | NCI-H23 > 100 µM | SK-MEL-5 > 100 µM | SK-OV-3 > 100 µM | SN12C > 100 µM | SNB-19 > 100 µM | SNB-75 > 100 µM | UACC-257 > 100 µM

N=C(c1ccccc1)N(O)C1CCCCC1
inactive: A549 > 100 µM | CAKI-1 > 100 µM | HCT-116 > 100 µM | HOP-92 > 100 µM | NCI-H226 > 100 µM | NCI-H23 > 100 µM | OVCAR-8 > 100 µM | SF-539 > 100 µM | SK-MEL-5 > 100 µM | SN12C > 100 µM | SNB-19 > 100 µM | SNB-75 81.3 µM | UACC-257 > 100 µM

Nc1ccccc1/C(O)=C1/CCOC1=O
inactive: A498 > 100 µM | A549 > 100 µM | CAKI-1 > 100 µM | HCT-116 > 100 µM | HOP-92 > 100 µM | IGROV-1 > 100 µM | K562 > 100 µM | NCI-H226 > 100 µM | NCI-H23 > 100 µM | OVCAR-3 > 100 µM | OVCAR-8 > 100 µM | SK-OV-3 > 100 µM | SN12C > 100 µM | SNB-19 > 100 µM | SNB-75 > 100 µM | UACC-257 > 100 µM
